Reference: publication PMC8536124 (International Journal of Molecular Sciences, 2021)
Like-named read-outs stand apart in the source and are kept apart here.

Tests used:
Type in all cases: cell-based, human
SF-268 = assay: NCI-60 screening (SRB); conditions: five-dose
OVCAR-8 = assay: NCI-60 screening (SRB); conditions: five-dose
COLO 205 = assay: NCI-60 screening (SRB); conditions: five-dose
EKVX = assay: NCI-60 screening (SRB); conditions: five-dose
A549/ATCC = assay: NCI-60 screening (SRB); conditions: five-dose
OVCAR-5 = assay: NCI-60 screening (SRB); conditions: five-dose
SF-539 = assay: NCI-60 screening (SRB); conditions: SF-539, five-dose
OVCAR-3 = assay: NCI-60 screening (SRB); conditions: five-dose
SF-295 = assay: NCI-60 screening (SRB); conditions: five-dose
NCI-H522 = assay: NCI-60 screening (SRB); conditions: five-dose
NCI-H23 = assay: NCI-60 screening (SRB); conditions: five-dose
OVCAR-4 = assay: NCI-60 screening (SRB); conditions: five-dose
NCI-H226 = assay: NCI-60 screening (SRB); conditions: five-dose
NCI-H322M = assay: NCI-60 screening (SRB); conditions: five-dose
SNB-19 = assay: NCI-60 screening (SRB); conditions: five-dose
MDA-MB-31/ATCC = assay: NCI-60 screening (SRB); conditions: five-dose
UACC-62 = assay: NCI-60 screening (SRB); conditions: five-dose
UO-31 = assay: NCI-60 screening (SRB); conditions: five-dose
NCI-H460 = assay: NCI-60 screening (SRB); conditions: five-dose
HCT-15 = assay: NCI-60 screening (SRB); conditions: five-dose
NCI/ADR-RES = assay: NCI-60 screening (SRB); conditions: five-dose
BT-549 = assay: NCI-60 screening (SRB); conditions: five-dose
RXF 393 = assay: NCI-60 screening (SRB); conditions: five-dose
PC-3 = assay: NCI-60 screening (SRB); conditions: five-dose
[1] = tested on: NCI-60 cancer cell line panel; assay: NCI-60 screening (SRB), full panel; conditions: for activity at 10 µM: 60 cell lines, 48 h
Source text: The experimental data allow the assessment of the cytostatic effect, indicated by growth inhibition values ranging between 0 and 100, as well as of the cytotoxic effect, indicated by negative values.
The mean GI50 (molar concentration of the compound that inhibits 50% net cell growth), TGI (molar concentration of the compound leading to the total inhibition), and LC50 (molar concentration of the compound leading to 50% net cell death (presented in negative logarithm)) values across each cell line are shown in Table 2.
The selectivity index (SI), calculated as the ratio between the full panel MG_MID60 (μM) of compounds 4, 6, and 9 by their respective subpanels MG_MID of the cell line (μM), was introduced as a quantification tool for the selectivity of each compound in terms of anticancer effect (Table 3).
Primary anticancer assays were performed according to the NCI protocol, as described elsewhere (see e.g., http://dtp.nci.nih.gov accessed on 1 November 2018). The compounds were added at a single concentration, and the cell cultures were incubated for 48 h. The end point determinations were made with a protein-binding dye, sulforhodamine B (SRB). […] The percentage of growth was evaluated spectrophotometrically versus controls not treated with test agents after 48 h exposure and using SRB protein assay to estimate cell viability or growth. Three antitumor activity dose-response parameters were calculated for each cell line. Furthermore, mean graph midpoints (MG_MID) were calculated for each of the parameters, giving an average activity parameter over all cell lines for the tested compound. For the MG_MID calculation, insensitive cell lines were included with the highest concentration tested.

HOP-92 = assay: NCI-60 screening (SRB); conditions: five-dose
SK-MEL-28 = assay: NCI-60 screening (SRB); conditions: five-dose
[2] = Homo sapiens, read-out: LC50 (the source's name)

CCN1CCN(C(=O)[C@]23CCC(C)(C)C[C@H]2C2=CC[C@@H]4[C@@]5(C)C/C(=C/c6cccnc6)C(=O)C(C)(C)[C@@H]5CC[C@@]4(C)[C@]2(C)CC3)CC1 [Compound 6]
GI50 (SF-268; Homo sapiens): 1590 nM
CC50 (SF-268; [2]): 85700 nM
TGI (SF-268): 4790 nM
GI50 (OVCAR-8; Homo sapiens): 2140 nM
CC50 (OVCAR-8; [2]): > 100000 nM
TGI (OVCAR-8): 5540 nM
GI50 (COLO 205; Homo sapiens): 1890 nM
CC50 (COLO 205; [2]): > 100000 nM
TGI (COLO 205): 4740 nM
GI50 (EKVX; Homo sapiens): 1900 nM
LC50 (EKVX; Homo sapiens): 43500 nM
TGI (EKVX): 6480 nM
GI50 (A549/ATCC; Homo sapiens): 2620 nM
CC50 (A549/ATCC; [2]): > 100000 nM
TGI (A549/ATCC): 13400 nM
GI50 (OVCAR-5; Homo sapiens): 1560 nM
CC50 (OVCAR-5; [2]): 7190 nM
TGI (OVCAR-5): 3350 nM
GI50 (SF-539; Homo sapiens): 1620 nM
CC50 (SF-539; [2]): 5550 nM
TGI (SF-539): 3000 nM
GI50 (OVCAR-3; Homo sapiens): 1510 nM
CC50 (OVCAR-3; [2]): 5730 nM
TGI (OVCAR-3): 2950 nM
GI50 (SF-295; Homo sapiens): 1660 nM
CC50 (SF-295; [2]): 5970 nM
TGI (SF-295): 3150 nM
GI50 (NCI-H522; Homo sapiens): 1610 nM
CC50 (NCI-H522; [2]): 8730 nM
TGI (NCI-H522): 3750 nM
GI50 (NCI-H23; Homo sapiens): 2100 nM
CC50 (NCI-H23; [2]): 27800 nM
TGI (NCI-H23): 5850 nM
GI50 (OVCAR-4; Homo sapiens): 2170 nM
CC50 (OVCAR-4; [2]): 47800 nM
TGI (OVCAR-4): 7850 nM
GI50 (NCI-H226; Homo sapiens): 1760 nM
TGI (NCI-H226): 3800 nM
GI50 (NCI-H322M; Homo sapiens): 2870 nM
CC50 (NCI-H322M; [2]): 33900 nM
TGI (NCI-H322M): 9250 nM
GI50 (SNB-19; Homo sapiens): 1680 nM
CC50 (SNB-19; [2]): 7120 nM
TGI (SNB-19): 3460 nM
GI50 (MDA-MB-31/ATCC; Homo sapiens): 1400 nM
CC50 (MDA-MB-31/ATCC; [2]): 5780 nM
TGI (MDA-MB-31/ATCC): 2840 nM
GI50 (UACC-62; Homo sapiens): 1280 nM
CC50 (UACC-62; [2]): 6230 nM
TGI (UACC-62): 2830 nM
GI50 (UO-31; Homo sapiens): 1350 nM
CC50 (UO-31; [2]): 5320 nM
TGI (UO-31): 2670 nM
GI50 (NCI-H460; Homo sapiens): 1390 nM
CC50 (NCI-H460; [2]): 6200 nM
TGI (NCI-H460): 2930 nM
GI50 (HCT-15; Homo sapiens): 1080 nM
CC50 (HCT-15; [2]): 6790 nM
TGI (HCT-15): 2710 nM
GI50 (NCI/ADR-RES; Homo sapiens): 1570 nM
CC50 (NCI/ADR-RES; [2]): 7600 nM
TGI (NCI/ADR-RES): 3460 nM
GI50 (BT-549; Homo sapiens): 1470 nM
CC50 (BT-549; [2]): 5660 nM
TGI (BT-549): 2880 nM
GI50 (RXF 393; Homo sapiens): 1420 nM
CC50 (RXF 393; [2]): 5410 nM
TGI (RXF 393): 2770 nM
GI50 (PC-3; Homo sapiens): 1000 nM
CC50 (PC-3; [2]): 7780 nM
TGI (PC-3): 2790 nM
Positive Cytostatic Effect (cell lines with percent growth 0 to 50 / total) ([1]; 1 dose 10 µM): 30/60
Positive Cytotoxic Effect (cell lines with percent growth <0 / total) ([1]; 1 dose 10 µM): 4/60
GI50 ([1]; Homo sapiens, five-dose, bound, read-out: GI50 against all human tumor cells): < 4000 nM
GI50 ([1]; Homo sapiens, mean graph midpoint, full panel, five-dose, read-out: GI50 MG_MID60): 1520 nM
CC50 ([1]; Homo sapiens, mean graph midpoint, full panel, five-dose, read-out: LC50 MG_MID60): 32400 nM
activity at 10 µM ([1]; Homo sapiens, 1 dose 10 µM, read-out: Mean Growth, %): 23.4%
activity at 10 µM ([1]; Homo sapiens, 1 dose 10 µM, read-out: Range of Growth, %): -91 to 83.8%
TGI MG_MID60 ([1]; mean graph midpoint, full panel, five-dose): 6290 nM
GI50 ([1]; mean graph midpoint, full panel, five-dose, read-out: GI50 MG_MID60): 1530 nM
selectivity class ([1]; toward some individual cell lines at the LC50 level): moderate selectivity (Ratios between 3 and 6 are indicators of moderate selectivity)
GI50 (HOP-92; Homo sapiens): 1060 nM
CC50 (HOP-92; [2]): 10100 nM
TGI (HOP-92): 3260 nM
GI50 (SK-MEL-28; Homo sapiens): 1480 nM
CC50 (SK-MEL-28; [2]): 5410 nM
TGI (SK-MEL-28): 2830 nM
